Measured values reported in US20170052170A1, “NOVEL CELL LINES AND METHODS” (priority 2009, published 2017).

Tests used:
[1] = molecular target: T1, sweet taste receptor (T1R2/T1R3) (Homo sapiens, UniProt Q7RTX0+Q8TE23, C757R/I191V/I486V/R317G); assay: Sweet cell-based calcium flux assay, HEK293T cells expressing T1R2, T1R3 and mouse Gα15
T1 construct: expressed in transfected cells; host or cells: HEK293T (ATCC CRL-11268)
T1 sequence (Q8TE23 20-839 I191V/R317G/I486V): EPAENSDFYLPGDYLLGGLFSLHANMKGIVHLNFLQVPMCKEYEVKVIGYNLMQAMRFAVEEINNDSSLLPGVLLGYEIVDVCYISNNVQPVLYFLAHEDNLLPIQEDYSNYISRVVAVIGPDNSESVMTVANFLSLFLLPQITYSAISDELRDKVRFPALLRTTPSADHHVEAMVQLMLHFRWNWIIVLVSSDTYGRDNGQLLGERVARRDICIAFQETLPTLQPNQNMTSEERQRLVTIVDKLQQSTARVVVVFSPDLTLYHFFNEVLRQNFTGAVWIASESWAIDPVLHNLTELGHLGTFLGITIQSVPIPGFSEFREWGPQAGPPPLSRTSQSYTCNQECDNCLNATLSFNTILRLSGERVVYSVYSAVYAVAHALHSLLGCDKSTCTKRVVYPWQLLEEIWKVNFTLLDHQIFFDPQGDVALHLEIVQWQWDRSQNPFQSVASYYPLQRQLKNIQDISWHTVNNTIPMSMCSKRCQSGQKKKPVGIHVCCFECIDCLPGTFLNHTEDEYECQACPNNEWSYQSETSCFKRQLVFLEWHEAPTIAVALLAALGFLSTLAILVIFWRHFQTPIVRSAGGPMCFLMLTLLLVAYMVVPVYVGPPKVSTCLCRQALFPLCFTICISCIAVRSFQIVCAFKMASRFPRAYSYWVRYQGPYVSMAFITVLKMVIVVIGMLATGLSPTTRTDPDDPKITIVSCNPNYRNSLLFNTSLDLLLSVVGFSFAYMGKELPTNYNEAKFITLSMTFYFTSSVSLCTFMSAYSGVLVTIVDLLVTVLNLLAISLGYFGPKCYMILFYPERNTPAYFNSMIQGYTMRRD
T1 sequence (Q7RTX0 21-852 C757R): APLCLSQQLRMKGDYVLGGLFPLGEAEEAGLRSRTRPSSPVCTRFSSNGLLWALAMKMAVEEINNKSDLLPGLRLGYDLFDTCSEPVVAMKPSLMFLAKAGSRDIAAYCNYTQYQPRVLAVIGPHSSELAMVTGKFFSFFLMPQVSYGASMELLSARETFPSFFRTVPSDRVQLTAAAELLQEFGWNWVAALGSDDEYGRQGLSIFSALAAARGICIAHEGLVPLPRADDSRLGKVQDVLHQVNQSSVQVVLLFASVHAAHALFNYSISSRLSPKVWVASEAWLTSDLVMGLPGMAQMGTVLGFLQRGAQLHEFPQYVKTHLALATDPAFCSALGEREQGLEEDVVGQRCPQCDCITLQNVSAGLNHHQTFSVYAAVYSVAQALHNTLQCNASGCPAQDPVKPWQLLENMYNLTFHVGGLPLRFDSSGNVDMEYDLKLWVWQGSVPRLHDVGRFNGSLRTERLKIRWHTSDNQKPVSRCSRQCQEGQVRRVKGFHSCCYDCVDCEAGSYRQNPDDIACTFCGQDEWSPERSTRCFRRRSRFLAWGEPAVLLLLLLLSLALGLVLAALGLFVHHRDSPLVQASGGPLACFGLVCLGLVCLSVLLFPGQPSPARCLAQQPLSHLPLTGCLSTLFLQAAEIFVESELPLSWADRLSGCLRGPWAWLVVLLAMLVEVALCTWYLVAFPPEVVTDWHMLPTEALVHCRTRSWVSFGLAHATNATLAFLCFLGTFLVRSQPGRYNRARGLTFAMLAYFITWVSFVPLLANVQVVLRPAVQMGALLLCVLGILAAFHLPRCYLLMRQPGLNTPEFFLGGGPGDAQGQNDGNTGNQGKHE
Text: Plates are then loaded on a high throughput plate reader (Hamamatsu FDSS). […] Calcium flux is detected for 90 seconds.

[2] = molecular target: T2, umami taste receptor (T1R1/T1R3) (Homo sapiens, UniProt Q7RTX0+Q7RTX1, C757R); assay: Umami cell-based calcium flux assay, HEK293T cells expressing T1R1, T1R3 and mouse Gα15; details: FIG. 6; high density, coated plates, low glucose media, serum deprivation
T2 construct: expressed in transfected cells; host or cells: HEK293T (ATCC CRL-11268)
T2 sequence (Q7RTX1 21-841): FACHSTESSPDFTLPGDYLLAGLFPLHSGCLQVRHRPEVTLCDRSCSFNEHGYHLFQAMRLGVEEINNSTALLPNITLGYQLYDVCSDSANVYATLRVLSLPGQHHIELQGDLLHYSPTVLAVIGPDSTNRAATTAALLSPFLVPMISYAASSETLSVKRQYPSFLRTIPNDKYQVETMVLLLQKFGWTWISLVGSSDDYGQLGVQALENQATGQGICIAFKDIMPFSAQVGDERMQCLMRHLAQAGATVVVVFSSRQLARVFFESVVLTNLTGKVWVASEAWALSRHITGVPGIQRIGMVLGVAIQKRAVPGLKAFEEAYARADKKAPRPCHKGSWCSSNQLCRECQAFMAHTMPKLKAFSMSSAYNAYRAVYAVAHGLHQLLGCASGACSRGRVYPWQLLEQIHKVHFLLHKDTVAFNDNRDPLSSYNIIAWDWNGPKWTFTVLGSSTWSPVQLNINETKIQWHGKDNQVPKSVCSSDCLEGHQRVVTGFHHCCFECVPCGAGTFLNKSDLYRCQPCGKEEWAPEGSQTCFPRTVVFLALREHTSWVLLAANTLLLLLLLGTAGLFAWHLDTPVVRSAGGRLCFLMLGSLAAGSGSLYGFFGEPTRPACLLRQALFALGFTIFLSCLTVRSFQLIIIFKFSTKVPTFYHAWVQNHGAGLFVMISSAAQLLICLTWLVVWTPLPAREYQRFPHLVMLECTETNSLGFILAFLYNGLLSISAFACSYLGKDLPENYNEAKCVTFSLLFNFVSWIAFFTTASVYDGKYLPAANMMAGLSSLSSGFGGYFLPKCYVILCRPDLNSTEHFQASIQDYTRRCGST
T2 sequence (Q7RTX0 21-852 C757R): T1 sequence (Q7RTX0 21-852 C757R)

SMILES: O=C(CO)[C@@H](O)[C@H](O)[C@H](O)CO [fructose]
- EC50 [1]: < 4.3 mM
- response of cells grown in the "Final" growth conditions ([1]; FIG. 20, high density, coated plates, low glucose media, serum deprivation): respond robustly
- response of cells grown in the "Final" growth conditions [2]: not
